Measured values reported in patent publication US11446287B2, “Compounds and methods for EP300 or CBP modulation and indications therefor” (Opna Immuno-Oncology SA, priority 2019, dated 2022).

target: T1, Recombinant human EP300 containing the bromodomain (EP300-BD (1040-1161)) (Homo sapiens, UniProt Q09472); assay: EP300 Alphascreen binding assay
T1 construct: Recombinant human EP300 bromodomain (EP300-BD (1040-1161)); made in house; host or cells: E. coli BL21-CodonPlus (DE3), modified pET vector
T1 sequence (Q09472 1040-1161): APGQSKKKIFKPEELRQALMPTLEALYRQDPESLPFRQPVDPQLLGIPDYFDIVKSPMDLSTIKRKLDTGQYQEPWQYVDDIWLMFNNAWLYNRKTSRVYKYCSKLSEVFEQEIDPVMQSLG
Outline: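 Displacement of a biotinylated acetyl-K56 histone H3 peptide from the N-His bromodomain construct (1040-1161) measured by AlphaScreen proximity, beads at 7.5 μg/ml final, read 60 min after addition. Protein, peptide and compound first incubated 1 h at room temperature, pH 7.5 HEPES buffer; IC50 by four-parameter logistic fit.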

Which IC50 does the source give for `Cc1noc(C)c1-c1cnc2c(c1)c(-c1ccc(C(=O)O)cc1OC(F)(F)F)cn2-c1ccccc1F` [P-0223, 4-(5-(3,5-dimethylisoxazol-4-yl)-1-(2-fluorophenyl)-1H-pyrrolo[2,3-b]pyridin-3-yl)-3-(trifluoromethoxy)benzoic acid] here?
The IC50 was 0.1 to 1000 nM.

With `CCOc1cccc(Cl)c1-n1cc(-c2ccccc2)c2ncc(-c3c(C)noc3C)cc21` [P-0224, 4-(1-(2-chloro-6-ethoxyphenyl)-3-phenyl-1H-pyrrolo[3,2-b]pyridin-6-yl)-3,5-dimethylisoxazole] as the compound, how does the IC50 read?
The IC50 was 1000 to 8000 nM.

With `CCOc1ccc(C(=O)O)cc1-n1cc(-c2ccccc2)c2ncc(-c3c(C)noc3C)cc21` [P-0225, 3-(6-(3,5-dimethylisoxazol-4-yl)-3-phenyl-1H-pyrrolo[3,2-b]pyridin-1-yl)-4-ethoxybenzoic acid] as the compound, how does the IC50 read?
The IC50 was 0.1 to 1000 nM.

How did the IC50 turn out when `Cc1noc(C)c1-c1cnc2c(c1)c(-c1ccc(C(=O)O)cc1OC(F)(F)F)cn2C1CCOCC1` [P-0226, 4-(5-(3,5-dimethylisoxazol-4-yl)-1-(tetrahydro-2H-pyran-4-yl)-1H-pyrrolo[2,3-b]pyridin-3-yl)-3-(trifluoromethoxy)benzoic acid] was run?
Its IC50 is 0.1 to 1000 nM.

How did the IC50 turn out when `Cc1noc(C)c1-c1cnc2c(c1)c(-c1ccc(C(=O)O)cc1OC(F)(F)F)cn2C1CCC(F)(F)CC1` [P-0227, 4-(1-(4,4-difluorocyclohexyl)-5-(3,5-dimethylisoxazol-4-yl)-1H-pyrrolo[2,3-b]pyridin-3-yl)-3-(trifluoromethoxy)benzoic acid] was run?
Its IC50 is 0.1 to 1000 nM.

For `Cc1noc(C)c1-c1cnc2c(c1)c(-c1ccc(C(=O)O)cc1OC(F)(F)F)c(C)n2-c1ccccn1` [P-0228, 4-(5-(3,5-dimethylisoxazol-4-yl)-2-methyl-1-(pyridin-2-yl)-1H-pyrrolo[2,3-b]pyridin-3-yl)-3-(trifluoromethoxy)benzoic acid], which IC50 is on record?
Its IC50 is 0.1 to 1000 nM.

For `Cc1noc(C)c1-c1cnc2c(-c3ccc(F)cc3F)cn(-c3ccc(C(=O)O)cc3OC(F)(F)F)c2c1` [P-0229, 4-(3-(2,4-difluorophenyl)-6-(3,5-dimethylisoxazol-4-yl)-1H-pyrrolo[3,2-b]pyridin-1-yl)-3-(trifluoromethoxy)benzoic acid], which IC50 is on record?
Its IC50 is 0.1 to 1000 nM.

Which IC50 does the source give for `Cc1noc(C)c1-c1cnc2c(c1)c(-c1c(F)cc(C(=O)O)cc1OC(F)(F)F)cn2C(C1CC1)C1CC1` [P-0230, 4-(1-(dicyclopropylmethyl)-5-(3,5-dimethylisoxazol-4-yl)-1H-pyrrolo[2,3-b]pyridin-3-yl)-3-fluoro-5-(trifluoromethoxy)benzoic acid] here?
The IC50 was 0.1 to 1000 nM.

With `Cc1ccccc1-n1cc(-c2ccc(C(=O)O)cc2OC(F)(F)F)c2cc(-c3c(C)noc3C)cnc21` [P-0231, 4-(5-(3,5-dimethylisoxazol-4-yl)-1-(o-tolyl)-1H-pyrrolo[2,3-b]pyridin-3-yl)-3-(trifluoromethoxy)benzoic acid] as the compound, how does the IC50 read?
The IC50 was 0.1 to 1000 nM.

`Cc1noc(C)c1-c1cnc2c(c1)c(-c1ccc(C(=O)O)cc1OC(F)(F)F)cn2-c1ccc(F)cc1F` [P-0232, 4-(1-(2,4-difluorophenyl)-5-(3,5-dimethylisoxazol-4-yl)-1H-pyrrolo[2,3-b]pyridin-3-yl)-3-(trifluoromethoxy)benzoic acid] was tested. Which IC50 did it give?
Its IC50 is 0.1 to 1000 nM.

For `Cc1noc(C)c1-c1cnc2c(c1)c(-c1ccc(C(=O)O)cc1OC(F)(F)F)cn2-c1cc(F)ccc1F` [P-0233, 4-(1-(2,5-difluorophenyl)-5-(3,5-dimethylisoxazol-4-yl)-1H-pyrrolo[2,3-b]pyridin-3-yl)-3-(trifluoromethoxy)benzoic acid], which IC50 is on record?
Its IC50 is 0.1 to 1000 nM.

For `Cc1noc(C)c1-c1cnc2c(-c3ccc(C(=O)O)cc3F)c(C(F)(F)F)n([C@@H](C)c3ccccn3)c2c1` [P-0234, (S)-4-(6-(3,5-dimethylisoxazol-4-yl)-1-(1-(pyridin-2-yl)ethyl)-2-(trifluoromethyl)-1H-pyrrolo[3,2-b]pyridin-3-yl)-3-fluorobenzoic acid], which IC50 is on record?
The IC50 was 0.1 to 1000 nM.
